The source made the active and inactive calls. The calls are words filed in the database; no cut-off is given here.
Tests used:
[1] = Volume of distribution in SCID mouse at 1 mg/kg, iv; type: ADME, organism-based; design: dose 1 mg/kg, route intravenous; conditions: in vivo
K562 = assay: Growth inhibition of ALK-negative human K562 cells up to 1 uM by MTS assay; type: functional, cell-based
[2] = AUC in SCID mouse at 1 mg/kg, iv; type: ADME, organism-based; design: dose 1 mg/kg, route intravenous; conditions: plasma
[3] = Half life in SCID mouse at 1 mg/kg, iv; type: ADME, organism-based; design: dose 1 mg/kg, route intravenous; conditions: in vivo
[4] = AUC in SCID mouse at 10 mg/kg, po; type: ADME, organism-based; design: dose 10 mg/kg, route oral; conditions: plasma
[5] = Half life in SCID mouse at 10 mg/kg, po; type: ADME, organism-based; design: dose 10 mg/kg, route oral; conditions: in vivo
[6] = Half life in Sprague-Dawley rat at 1 mg/kg, iv; type: ADME, organism-based; design: dose 1 mg/kg, route intravenous; conditions: in vivo
[7] = Plasma clearance in Sprague-Dawley rat at 1 mg/kg, iv by LC/MS/MS analysis; type: ADME, organism-based; design: dose 1 mg/kg, route intravenous
Rattus norvegicus = assay: Clearance with respect to hepatic blood flow in Sprague-Dawley rat at 1 mg/kg, iv; type: ADME, organism-based, Liver; design: dose 1 mg/kg, route intravenous; conditions: in vivo
[8] = Tmax in Sprague-Dawley rat at 5 mg/kg, po; type: ADME, organism-based; design: dose 5 mg/kg, route oral; conditions: in vivo
[9] = target: Platelet-derived growth factor receptor beta (Homo sapiens) (UniProt P09619); assay: Inhibition of PDGFRB at 0.1 uM
[10] = target: Serine/threonine-protein kinase PLK4 (Homo sapiens) (UniProt O00444); assay: Inhibition of PLK4 at 0.1 uM
[11] = target: Protein-tyrosine kinase 2-beta (Homo sapiens) (UniProt Q14289); assay: Inhibition of PYK2 at 0.1 uM
[12] = target: Ribosomal protein S6 kinase alpha-2 (Homo sapiens) (UniProt Q15349); assay: Inhibition of RPS6KA2 at 0.1 uM
[13] = target: Dual specificity protein kinase TTK (Homo sapiens) (UniProt P33981); assay: Inhibition of TTK at 0.1 uM
[14] = target: Serine/threonine-protein kinase ULK3 (Homo sapiens) (UniProt Q6PHR2); assay: Inhibition of ULK3 at 1 uM
Serine/threonine-protein kinase ULK3 (Homo sapiens), sequence (Q6PHR2 whole entry): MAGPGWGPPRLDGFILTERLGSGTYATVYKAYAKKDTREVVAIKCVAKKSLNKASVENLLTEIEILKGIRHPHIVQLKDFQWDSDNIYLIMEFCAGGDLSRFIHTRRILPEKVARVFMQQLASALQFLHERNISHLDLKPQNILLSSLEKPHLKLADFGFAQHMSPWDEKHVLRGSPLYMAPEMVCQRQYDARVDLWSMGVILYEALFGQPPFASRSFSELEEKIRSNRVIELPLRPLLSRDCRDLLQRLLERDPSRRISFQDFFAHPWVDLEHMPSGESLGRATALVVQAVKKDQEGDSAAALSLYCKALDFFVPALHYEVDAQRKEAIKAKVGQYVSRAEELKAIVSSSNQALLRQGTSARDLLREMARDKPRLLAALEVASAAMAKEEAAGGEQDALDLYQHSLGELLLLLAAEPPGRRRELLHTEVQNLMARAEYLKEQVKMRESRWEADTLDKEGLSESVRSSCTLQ

[15] = target: Serine/threonine-protein kinase ULK3 (Homo sapiens) (UniProt Q6PHR2); assay: Inhibition of ULK3 at 0.1 uM
[16] = target: Serine/threonine-protein kinase 32B (Homo sapiens) (UniProt Q9NY57); assay: Inhibition of YANK2 at 1 uM
Mus musculus [17] = assay: Toxicity in SCID mouse xenografted with human SUP-M2 cells at 30 mg/kg, po BID for 12 days; type: organism-based; design: dose 30 mg/kg, route oral; conditions: in vivo, 288 h
Mus musculus [18] = assay: Toxicity in SCID mouse xenografted with human SUP-M2 cells assessed as weight loss at 30 mg/kg, po BID for 12 days; type: organism-based; design: dose 30 mg/kg, route oral; conditions: in vivo, 288 h
SUP-M2 [19] = assay: Antitumor activity against ALK-positive human SUP-M2 cells xenografted in po dosed SCID mouse bid after 12 days; type: functional, organism-based
[20] = Half life in Sprague-Dawley rat at 5 mg/kg, po; type: ADME, organism-based; design: dose 5 mg/kg, route oral; conditions: in vivo
[21] = Plasma clearance in beagle dog at 1 mg/kg, iv by LC/MS/MS analysis; type: ADME, organism-based, Canis lupus familiaris; design: dose 1 mg/kg, route intravenous
Canis familiaris = assay: Clearance with respect to hepatic blood flow in beagle dog at 1 mg/kg, iv; type: ADME, organism-based, Canis lupus familiaris, Liver; design: dose 1 mg/kg, route intravenous; conditions: in vivo
[22] = AUC in beagle dog at 1 mg/kg, iv; type: ADME, organism-based, Canis lupus familiaris; design: dose 1 mg/kg, route intravenous; conditions: plasma
[23] = Half life in beagle dog at 10 mg/kg, po; type: ADME, organism-based, Canis lupus familiaris; design: dose 10 mg/kg, route oral; conditions: in vivo
[24] = AUC in beagle dog at 10 mg/kg, po; type: ADME, organism-based, Canis lupus familiaris; design: dose 10 mg/kg, route oral; conditions: plasma
[25] = Oral bioavailability in beagle dog at 10 mg/kg; type: ADME, organism-based, Canis lupus familiaris; conditions: in vivo
Mus musculus [26] = assay: Antitumor activity in ALK-positive human SUP-M2 cells xenografted in SCID mouse assessed as inhibition of NPM-ALK autophosphorylation in tumor lysate at 30 mg/kg, po administered as single dose measured after 12 hrs; type: functional; conditions: SUP-M2, Neoplasm, read-out: TGI
[27] = Plasma protein binding in mouse; type: ADME, cell-free; conditions: read-out: PPB (converted)
[28] = Plasma concentration in SCID mouse xenografted with ALK-positive human SUP-M2 cells at 10 mg/kg, po bid for 12 days; type: ADME, organism-based; design: dose 10 mg/kg, route oral
[29] = Plasma concentration in SCID mouse xenografted with ALK-positive human SUP-M2 cells at 30 mg/kg, po bid for 12 days; type: ADME, organism-based; design: dose 30 mg/kg, route oral
[30] = Plasma concentration in SCID mouse xenografted with ALK-positive human SUP-M2 cells at 55 mg/kg, po bid for 12 days; type: ADME, organism-based; design: dose 55 mg/kg, route oral
[31] = Drug uptake in tumor lysates in SCID mouse xenografted with ALK-positive human SUP-M2 cells at 55 mg/kg, po bid for 12 days; type: ADME, organism-based, Neoplasm; design: dose 55 mg/kg, route oral; conditions: read-out: Drug uptake
[32] = target: T1, ALK tyrosine kinase receptor (Homo sapiens, UniProt Q9UM73); assay: Inhibition of NPM-ALK autophosphorylation in human KARPAS299 cells in presence of mouse plasma; type: cell-based; conditions: karpas-299
T1 sequence (Q9UM73 19-1620 limits assumed): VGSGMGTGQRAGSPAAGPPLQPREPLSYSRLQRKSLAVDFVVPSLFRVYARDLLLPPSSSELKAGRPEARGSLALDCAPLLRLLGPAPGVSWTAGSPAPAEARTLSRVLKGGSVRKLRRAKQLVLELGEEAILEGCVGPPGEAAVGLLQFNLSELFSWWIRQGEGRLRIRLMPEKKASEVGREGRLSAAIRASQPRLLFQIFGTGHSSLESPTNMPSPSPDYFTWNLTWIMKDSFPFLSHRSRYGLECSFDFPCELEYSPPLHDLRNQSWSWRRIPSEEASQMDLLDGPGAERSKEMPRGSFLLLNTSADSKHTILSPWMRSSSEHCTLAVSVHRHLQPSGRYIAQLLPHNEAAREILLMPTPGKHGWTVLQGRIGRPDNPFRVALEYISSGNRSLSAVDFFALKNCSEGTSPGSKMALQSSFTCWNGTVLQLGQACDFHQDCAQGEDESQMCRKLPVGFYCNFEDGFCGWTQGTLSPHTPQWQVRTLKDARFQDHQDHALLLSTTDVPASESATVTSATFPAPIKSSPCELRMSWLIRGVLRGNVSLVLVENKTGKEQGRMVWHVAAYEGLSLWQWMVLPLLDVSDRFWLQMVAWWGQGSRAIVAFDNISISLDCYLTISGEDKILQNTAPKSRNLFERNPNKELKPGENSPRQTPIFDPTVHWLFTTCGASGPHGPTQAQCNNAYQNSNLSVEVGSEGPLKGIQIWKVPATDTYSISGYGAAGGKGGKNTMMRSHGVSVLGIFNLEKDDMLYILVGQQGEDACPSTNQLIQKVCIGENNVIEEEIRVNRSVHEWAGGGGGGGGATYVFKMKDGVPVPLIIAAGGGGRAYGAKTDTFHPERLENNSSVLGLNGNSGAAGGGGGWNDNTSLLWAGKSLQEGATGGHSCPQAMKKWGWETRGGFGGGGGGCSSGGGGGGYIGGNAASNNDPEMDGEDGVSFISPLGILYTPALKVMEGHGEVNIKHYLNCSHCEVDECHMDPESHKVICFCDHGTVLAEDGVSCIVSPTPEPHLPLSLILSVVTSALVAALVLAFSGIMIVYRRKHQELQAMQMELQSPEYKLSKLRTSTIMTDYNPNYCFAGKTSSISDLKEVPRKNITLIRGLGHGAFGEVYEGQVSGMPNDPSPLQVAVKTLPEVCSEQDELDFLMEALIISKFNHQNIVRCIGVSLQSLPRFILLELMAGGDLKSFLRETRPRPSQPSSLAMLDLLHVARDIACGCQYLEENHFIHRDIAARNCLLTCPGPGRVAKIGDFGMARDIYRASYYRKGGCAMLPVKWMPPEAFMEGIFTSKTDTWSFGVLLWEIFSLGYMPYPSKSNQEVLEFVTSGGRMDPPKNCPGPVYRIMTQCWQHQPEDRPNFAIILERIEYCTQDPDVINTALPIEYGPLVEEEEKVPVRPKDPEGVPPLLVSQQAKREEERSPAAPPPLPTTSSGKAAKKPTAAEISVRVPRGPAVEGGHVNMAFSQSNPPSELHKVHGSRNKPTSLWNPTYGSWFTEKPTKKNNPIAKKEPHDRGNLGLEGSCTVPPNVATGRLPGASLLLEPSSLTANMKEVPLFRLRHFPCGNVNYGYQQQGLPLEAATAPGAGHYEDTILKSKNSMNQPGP

SUP-M2 [33] = assay: Antitumor activity against ALK-positive human SUP-M2 cells xenografted in SCID mouse at 10 mg/kg, po bid after 12 days; type: functional, organism-based; design: dose 10 mg/kg
[34] = target: Tyrosine-protein kinase Fer (Homo sapiens) (UniProt P16591); assay: Inhibition of FER at 0.1 uM
Tyrosine-protein kinase Fer (Homo sapiens), sequence (P16591 whole entry, looked up): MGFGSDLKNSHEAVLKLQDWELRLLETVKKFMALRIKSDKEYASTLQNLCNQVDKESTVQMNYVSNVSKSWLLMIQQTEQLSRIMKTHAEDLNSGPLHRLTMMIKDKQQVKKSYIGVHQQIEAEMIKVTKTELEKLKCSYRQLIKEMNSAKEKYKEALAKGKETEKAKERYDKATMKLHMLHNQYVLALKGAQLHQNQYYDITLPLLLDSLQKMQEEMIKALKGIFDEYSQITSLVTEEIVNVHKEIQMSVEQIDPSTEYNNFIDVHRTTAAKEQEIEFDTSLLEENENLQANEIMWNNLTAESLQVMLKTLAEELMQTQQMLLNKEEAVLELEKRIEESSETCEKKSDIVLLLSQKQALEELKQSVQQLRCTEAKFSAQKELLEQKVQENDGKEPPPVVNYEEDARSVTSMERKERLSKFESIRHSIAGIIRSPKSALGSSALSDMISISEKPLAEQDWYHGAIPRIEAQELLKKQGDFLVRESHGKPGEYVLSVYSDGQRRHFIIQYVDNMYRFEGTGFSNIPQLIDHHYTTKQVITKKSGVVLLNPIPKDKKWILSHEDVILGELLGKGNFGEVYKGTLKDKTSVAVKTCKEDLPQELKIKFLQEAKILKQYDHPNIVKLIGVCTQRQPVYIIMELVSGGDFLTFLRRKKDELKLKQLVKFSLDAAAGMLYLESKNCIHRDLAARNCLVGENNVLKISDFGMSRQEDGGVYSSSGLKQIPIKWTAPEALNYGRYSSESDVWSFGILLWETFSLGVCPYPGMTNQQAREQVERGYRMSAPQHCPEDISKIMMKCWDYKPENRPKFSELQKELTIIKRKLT

[35] = target: Tyrosine-protein kinase Fer (Homo sapiens) (UniProt P16591); assay: Inhibition of FER at 1 uM
[36] = target: Focal adhesion kinase 1 (Homo sapiens) (UniProt Q05397); assay: Inhibition of FAK at 0.1 uM
[37] = test system: Epidermal growth factor receptor (Homo sapiens), P00533 [L861Q]; assay: Inhibition of EGFR L861Q mutant at 0.1 uM; type: protein assay
[38] = target: Protein-tyrosine kinase 6 (Homo sapiens) (UniProt Q13882); assay: Inhibition of BRK at 1 uM
[39] = target: NUAK family SNF1-like kinase 1 (Homo sapiens) (UniProt O60285); assay: Inhibition of ARK5 at 0.1 uM
[40] = target: Mitogen-activated protein kinase kinase kinase 5 (Homo sapiens) (UniProt Q99683); assay: Inhibition of ASK1 at 1 uM
[41] = target: Vascular endothelial growth factor receptor 3 (Homo sapiens) (UniProt P35916); assay: Inhibition of FLT4 at 1 uM
Vascular endothelial growth factor receptor 3 (Homo sapiens), sequence (P35916 whole entry): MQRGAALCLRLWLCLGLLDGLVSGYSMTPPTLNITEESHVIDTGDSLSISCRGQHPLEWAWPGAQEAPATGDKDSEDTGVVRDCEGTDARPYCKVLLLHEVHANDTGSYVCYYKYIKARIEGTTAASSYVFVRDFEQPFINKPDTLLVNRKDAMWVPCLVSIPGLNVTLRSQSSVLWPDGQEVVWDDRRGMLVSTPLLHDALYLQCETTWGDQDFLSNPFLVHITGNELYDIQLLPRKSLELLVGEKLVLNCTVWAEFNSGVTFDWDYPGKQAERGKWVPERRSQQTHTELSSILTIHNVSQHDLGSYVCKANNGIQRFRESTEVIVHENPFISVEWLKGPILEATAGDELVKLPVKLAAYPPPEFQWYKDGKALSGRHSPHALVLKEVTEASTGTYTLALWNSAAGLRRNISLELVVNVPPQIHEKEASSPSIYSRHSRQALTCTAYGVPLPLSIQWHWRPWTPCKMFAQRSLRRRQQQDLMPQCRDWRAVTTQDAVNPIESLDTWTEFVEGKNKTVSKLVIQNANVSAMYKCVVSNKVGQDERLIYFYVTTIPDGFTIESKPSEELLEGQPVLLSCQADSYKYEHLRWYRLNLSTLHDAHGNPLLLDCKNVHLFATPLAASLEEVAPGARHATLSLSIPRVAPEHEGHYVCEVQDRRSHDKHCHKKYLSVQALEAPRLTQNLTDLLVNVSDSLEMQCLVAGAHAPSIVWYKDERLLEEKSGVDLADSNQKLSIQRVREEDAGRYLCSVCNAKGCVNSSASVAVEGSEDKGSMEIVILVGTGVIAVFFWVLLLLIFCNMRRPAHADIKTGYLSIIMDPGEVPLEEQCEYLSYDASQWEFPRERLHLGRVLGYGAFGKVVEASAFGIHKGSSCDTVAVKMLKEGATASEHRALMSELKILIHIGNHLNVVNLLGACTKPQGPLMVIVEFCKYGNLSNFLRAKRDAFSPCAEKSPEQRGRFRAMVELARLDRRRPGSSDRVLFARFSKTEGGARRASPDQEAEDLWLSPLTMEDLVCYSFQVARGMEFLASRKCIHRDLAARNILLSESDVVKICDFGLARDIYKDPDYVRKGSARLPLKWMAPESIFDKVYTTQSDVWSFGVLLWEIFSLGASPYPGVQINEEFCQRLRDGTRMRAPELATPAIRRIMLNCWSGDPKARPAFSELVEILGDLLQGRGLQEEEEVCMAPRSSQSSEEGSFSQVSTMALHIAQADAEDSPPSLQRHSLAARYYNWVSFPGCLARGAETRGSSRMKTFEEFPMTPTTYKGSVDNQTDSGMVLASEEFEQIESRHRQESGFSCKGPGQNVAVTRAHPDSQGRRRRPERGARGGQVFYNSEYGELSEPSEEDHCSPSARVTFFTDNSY

[42] = target: Vascular endothelial growth factor receptor 3 (Homo sapiens) (UniProt P35916); assay: Inhibition of FLT4 at 0.1 uM
[43] = target: Cyclin-G-associated kinase (Homo sapiens) (UniProt O14976); assay: Inhibition of GAK at 1 uM
[44] = target: Mitogen-activated protein kinase 9 (Homo sapiens) (UniProt P45984); assay: Inhibition of JNK2 at 0.1 uM
Mitogen-activated protein kinase 9 (Homo sapiens), sequence (P45984 whole entry, looked up): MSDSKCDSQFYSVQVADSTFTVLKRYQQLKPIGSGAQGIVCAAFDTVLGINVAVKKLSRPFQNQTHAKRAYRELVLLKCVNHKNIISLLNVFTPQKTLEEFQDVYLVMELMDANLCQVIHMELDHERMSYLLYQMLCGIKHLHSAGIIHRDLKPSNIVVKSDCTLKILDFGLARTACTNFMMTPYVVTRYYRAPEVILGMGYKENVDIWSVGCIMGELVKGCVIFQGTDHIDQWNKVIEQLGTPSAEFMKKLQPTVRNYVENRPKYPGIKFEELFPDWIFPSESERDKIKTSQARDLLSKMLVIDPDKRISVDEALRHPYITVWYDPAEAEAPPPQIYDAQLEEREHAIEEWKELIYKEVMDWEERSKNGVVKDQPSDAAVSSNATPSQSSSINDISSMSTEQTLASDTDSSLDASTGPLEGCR

[45] = test system: Mast/stem cell growth factor receptor Kit (Homo sapiens), P10721 [D816V]; assay: Inhibition of KIT D816V mutant at 1 uM
[46] = target: Leukocyte tyrosine kinase receptor (Homo sapiens) (UniProt P29376); assay: Inhibition of LTK at 0.1 uM
[47] = target: Dual specificity mitogen-activated protein kinase kinase 1 (Homo sapiens) (UniProt Q02750); assay: Inhibition of MEK1 at 0.1 uM
[48] = target: Dual specificity mitogen-activated protein kinase kinase 4 (Homo sapiens) (UniProt P45985); assay: Inhibition of MEK4 at 0.1 uM
Dual specificity mitogen-activated protein kinase kinase 4 (Homo sapiens), sequence (P45985 whole entry): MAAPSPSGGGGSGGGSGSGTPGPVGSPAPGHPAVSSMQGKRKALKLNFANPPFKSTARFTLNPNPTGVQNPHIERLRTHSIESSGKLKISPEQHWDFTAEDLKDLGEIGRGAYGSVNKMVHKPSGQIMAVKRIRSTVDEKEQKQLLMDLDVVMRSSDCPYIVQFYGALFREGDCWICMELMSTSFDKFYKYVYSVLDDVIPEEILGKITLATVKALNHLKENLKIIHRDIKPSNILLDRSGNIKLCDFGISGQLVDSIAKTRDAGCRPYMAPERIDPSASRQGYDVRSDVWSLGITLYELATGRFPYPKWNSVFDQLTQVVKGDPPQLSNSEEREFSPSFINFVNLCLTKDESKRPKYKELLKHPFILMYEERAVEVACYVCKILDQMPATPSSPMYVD

[49] = target: Serine/threonine-protein kinase 3 (Homo sapiens) (UniProt Q13188); assay: Inhibition of MST2 at 1 uM
[50] = target: T1, ALK tyrosine kinase receptor; conditions: 1 uM
Description: Inhibition of ALK at 1 uM

CCN1C(=O)CCCc2c1ccc(Nc1ncc(Cl)c(N[C@H]3[C@@H](C(N)=O)[C@@H]4C=C[C@H]3C4)n1)c2OC
Vd [1]: 0.9 L/kg
growth inhibition (GI) (K562): inactive
AUC [2]: 446 ng·h/mL
half-life [3]: 0.3 h
AUC [4]: 1410 ng·h/mL
half-life [5]: 2.4 h
half-life [6]: 0.8 h
clearance [7]: 13 mL/min/kg
CL (Rattus norvegicus): 20%
Tmax [8]: 0.8 h
inhibition [9]: 66%
inhibition [10]: 95%
inhibition [11]: 90%
inhibition [12]: < 50%
inhibition [13]: 96%
inhibition [14]: 94%
inhibition [15]: < 50%
inhibition [16]: 92%
Activity (Mus musculus [17]): Non-toxic
Activity (Mus musculus [18]): Non-toxic
Activity (SUP-M2 [19]): Dose-dependent effect
half-life [20]: 2.2 h
clearance [21]: 22 mL/min/kg
CL (Canis familiaris): 58%
AUC [22]: 773 ng·h/mL
half-life [23]: 1.6 h
AUC [24]: 2480 ng·h/mL
bioavailability [25]: 31%
inhibition in vivo at 30 mg/kg (Mus musculus [26]): > 80%
fraction unbound [27]: 0.08
concentration at 288 h [28]: 337 ng/mL
concentration at 288 h [29]: 1500 ng/mL
concentration at 288 h [30]: 3700 ng/mL
concentration at 288 h [31]: 1180 ng/g
IC50 [32]: 225 nM
Activity (SUP-M2 [33]): inactive
inhibition [34]: 93%
inhibition [35]: 100%
inhibition [36]: 72%
inhibition [37]: < 50%
inhibition [38]: 100%
inhibition [39]: < 50%
inhibition [40]: 99%
inhibition [41]: 100%
inhibition [42]: 72%
inhibition [43]: 91%
inhibition [44]: < 50%
inhibition [45]: 99%
inhibition [46]: 96%
inhibition [47]: < 50%
inhibition [48]: < 50%
inhibition [49]: 91%
inhibition [50]: 97%

— ChEMBL document CHEMBL2040771, “Discovery of a potent inhibitor of anaplastic lymphoma kinase with in vivo antitumor activity” (ACS Med Chem Lett, 2010)
